Data on 5 compounds can be found in US6242442A (Alcon Laboratories, Inc., priority 2000, dated 2001).

For data set [1], the system named is ocular and cerebral blood flow. Particulars: oral and i.v. administration, relatively high dosages; cited from earlier work.
The conditions of data set [2]: in words; cited from earlier work.
For data set [3], the system named is α2. Particulars: cited from earlier work.
The test system of data set [4] is scleral vessels; vessels in the back of the eye. Conditions: topical ocular administration; cited from earlier work.
The test system of data set [5] is IOP. Conditions: rabbits, monkeys and man; cited from earlier work.
For data set [6] the following is noted: topical, some patients; cited from earlier work.
Data set [7] has as its system optic nerve head (ONH). The data set can be described thus: Optic nerve head blood flow by LDF, one-week multidose topical crossover study in rabbits. Particulars: 2% suspension topical, one drop twice daily, 90 minutes after last dose, mean±SEM, p<0.05. The class given is in vivo, Dutch-Belted rabbits. On the procedure: (§1) Treatment measurements were made 90 minutes after the last dose on day eight. Optic nerve head blood flow and measured systemic variables were not changed by vehicle treatment. […] It is established that the vasculature of the ONH responds to increases in arterial O2 or CO2 tension by a reduction or an enhancement of ONH blood flow respectively.

The subject of data set [8] is retina. The experiment in a line: Tissue distribution after single topical ocular dose of 14C-brinzolamide, NZW rabbits. The class given is in vivo, New Zealand Albino (NZW) rabbits.
The subject of data set [9] is optic nerve head. The experiment in a line: Optic nerve head blood flow by LDF in anesthetized rabbits, intravenous. The format is in vivo, New Zealand albino rabbits. Conditions: intravenous 0.5, 2.5, and 5 mg/kg. An excerpt:
(§2) In this experiment it was also possible to compare blood flows of the normal eye to the contralateral eye that was mildly hypofused due to unilateral carotid occlusion.

The test system of data set [10] is optic nerve head (ONH). The experiment in a line: Optic nerve head blood flow by laser Doppler flowmetry in cats. The format is in vivo, cat.
Data set [11] in a line: Distribution coefficient (octanol/water determined at pH 7.4). The format is physicochemical.
Data set [12] has as its system intraocular pressure (IOP). The experiment in a line: Intraocular pressure, one-week multidose topical crossover study in rabbits. The format is in vivo, Dutch-Belted rabbits. Particulars: 2% suspension topical, one drop twice daily, 90 minutes after last dose, p<0.05 versus vehicle, p<0.001 versus baseline. On the procedure:
as §1

The test system of data set [13] is retina. The experiment in a line: Tissue distribution after single topical ocular dose of 14C-brinzolamide, Dutch belted rabbits. The class given is in vivo.
The subject of data set [14] is ocular tissues. The experiment in a line: Ocular blood flow by colored microsphere technique in anesthetized rabbits, intravenous. Conditions: for increase in total ocular blood flow, hypofused eyes: unilateral carotid occlusion. The class given is in vivo, New Zealand albino rabbits.
Excerpt: as §2

Data set [15] in a line: Acid-base balance and arterial gases, one-week multidose topical crossover study in rabbits. The format is in vivo, Dutch-Belted rabbits. Particulars: 2% suspension topical, one drop twice daily. How it is done:
as §1

The subject of data set [16] is intraocular pressure. Conditions: ocular hypertension and glaucoma; cited from earlier work.
Data set [17] has as its system blood flow to the iris, ciliary processes, optic nerve, or retina. Particulars: topical, rabbits; Sugrue et al. 1996; cited from earlier work.
Data set [18] relates to ocular blood flow. Conditions: cited from earlier work.
For data set [19], the system named is ocular blood flow. Particulars: cited from earlier work. The source holds these as a separate data set.
For data set [20] the following is noted: octanol/water, pH 7.4; in words; cited from earlier work.
Where [21] appears, read: retina, single topical ocular dose of 1% 14C-brinzolamide.
The mark [22] stands for this setting: read-out: distribution coefficient (converted).

Like-named read-outs stand apart in the source and are kept apart here.

`CC(=O)Nc1nnc(S(N)(=O)=O)s1` [acetazolamide]: the “ocular and cerebral blood flow” value in data set [1] was “increase both ocular and cerebral blood flow”. Besides, in data set [2], the “half-life in whole blood” value is “relatively short half-lives in whole blood”.

On to `Brc1c(NC2=NCCN2)ccc2nccnc12` [brimonidine, (5-bromo-6-2-imidzolidisnylideneamino) quinozoline L-tartrate], for which the “α2 agonist activity and selectivity” value in data set [3] was “potent and relatively selective α2 agonist”. In data set [4], the “vasoconstriction in scleral vessels” value is “causes vasoconstriction in scieral vessels” and the “vasoconstriction in vessels in the back of the eye” value is on record as “does not appear to be a vasoconstrictor in vessels in the back of the eye”. For the same compound, the “lowering of IOP” value in data set [5] is “effectively lower IOP in rabbits, monkeys and man”. For the same compound, in data set [6], the side effects entry is “sedation and ocular hyperemia in an allergic like reaction in some patients”.

For the compound `CCN[C@H]1CN(CCCOC)S(=O)(=O)c2sc(S(N)(=O)=O)cc21` [brinzolamide, R-(+)-4ethylamino-3,4-dihydro-2-(3-methoxy)propyl-2H thieno[3,2,e]1,2thiazene-6sulfonamide-1,1dioxide], the “increase in ONH blood flow” value is 11.2±1.6% in [7]; 16.5%±8% in [10] (60 minutes following single topical dose, anesthetized ventilated cats); 46±17% in [10] (intravenous, p≤0.05). Besides, the Cmax in data set [8] (setting [21]) is listed as 0.330 ?g equivalents/g; in data set [13] (setting [21]) it was 0.338 ?g equivalents/g. Moreover, in data set [8] (single topical ocular dose of 1% 14C-brinzolamide), the “Tmax in the retina” value is reported as 20 days. For the same compound, the “redistribution into the retina” value in data set [8] (topical ocular) and in [13] (topical ocular) was “slowly redistribute into the retina” each time. The “optic nerve head blood flow” value in data set [9] is recorded as “increased above baseline”. In data set [10] (1% topical, one drop twice a day, one week, spontaneously breathing cats, average of two measurements), the “increase in ONH blood flow over control group” value was 21.8%. Moreover, in data set [11] (setting [22]), the logD is 0.817. In data set [12], the “decrease of IOP” value was 16.8±2.2%. In addition, the “regional blood flows to the hypofused eye” value in data set [14] (highest intravenous dose) was “returned regional blood flows to the hypofused eye to baseline levels found in the normal eye”. In addition, the “tissues with greatest percentage blood flow increase, hypofused eye” value in data set [14] (intravenous) is “greatest to iridial, ciliary, and choroidal tissues, respectively”. The “increase in total ocular blood flow, normal eyes” value in [14] (intravenous 0.5 mg/kg) is on record as 29%; in [14] (intravenous 2.5 mg/kg) it was 68%; in [14] (intravenous 5 mg/kg) it was 90%. Besides, the “increase in total ocular blood flow, hypofused eyes” value was 21% in data set [14] (intravenous 0.5 mg/kg), 64% in data set [14] (intravenous 2.5 mg/kg) and 90% in [14] (intravenous 5 mg/kg). The “total ocular blood flow” value in data set [14] (intravenous 0.5, 2.5, and 5 mg/kg) was “significant dose-related increase”. Further, in data set [15], the “disturbance of acid-base balance” value is reported as “Minimal disturbance of acid-base balance”. Moreover, the “lowering of elevated intraocular pressure” value in data set [16] is given as “effective in lowering the elevated intraocular pressure”.

As to `CCN[C@H]1C[C@H](C)S(=O)(=O)c2sc(S(N)(=O)=O)cc21` [dorzolamide], in data set [17], the “blood flow to the iris, ciliary processes, optic nerve, or retina” value is “does not decrease blood flow”. In addition, in [11] (setting [22]), the logD is 0.236. For the same compound, in data set [18] (healthy subjects, WO 96/37203), the artereovenous passage time result is “accelerated artereovenous passage time” and the “optic nerve head velocity” value is listed as “increase in optic nerve head velocity”. The “retinal vein blood flow” value in data set [18] (normal volunteers, Gruenwald et al. 1997) is listed as “no effect on retinal vein blood flow”. Moreover, the “optic nerve head blood flow” value in [18] (topical, healthy subjects, Pillunat et al. 1997) was “did not alter optic nerve head blood flow”. Also, in data set [19] (Harris et al. 1996), the “blood velocity in the retina and superficial optic nerve head” value is “accelerated blood velocity in the retina and superficial optic nerve head”. In addition, in [19] (Shipman et al. 1997), the “choroidal pressure flow relationships” value is on record as “did not alter the choroidal pressure flow relationships”. For the same compound, the peripapillary blood flow result in data set [19] (topical, Koller et al. 1997) is on record as “did not change peripapillary blood flow”. Also, the ocular blood flow result in data set [19] (topical, Sponsel 1996, 1997) is “positive effect on ocular blood flow”.

`CC(=O)/N=c1/sc(S(N)(=O)=O)nn1C` [methazolamide]: in data set [1], the “ocular and cerebral blood flow” value was “increase both ocular and cerebral blood flow”. Moreover, in data set [2], the “half-life in whole blood” value is reported as “relatively short half-lives in whole blood”. Also, in data set [11], the logD was -0.194. Moreover, the distribution coefficient entry in data set [20] is reported as “low distribution coefficients”.
